Source: US20210078988A1, “MODULATORS OF INDOLEAMINE 2,3-DIOXYGENASE” (GLAXOSMITHKLINE INTELLECTUAL PROPERTY DEVELOPMENT LIMITED, priority 2017, published 2021)

molecular target: T1, indoleamine 2, 3-dioxygenase (IDO1) (Homo sapiens, UniProt P14902); assay: PBMC IDO1 assay (kynurenine detection via mass spectrometry); assay type: cell-based; settings: human PBMC stimulated with IFN-γ and LPS, 2 days, kynurenine by mass spectrometry; read-out: IDO1 PBMC pIC50 (converted)
T1 construct: human peripheral blood mononuclear cells (PBMC) (PB003F; host or cells: human PBMC stimulated with IFN-gamma and LPS
T1 sequence (P14902 whole entry): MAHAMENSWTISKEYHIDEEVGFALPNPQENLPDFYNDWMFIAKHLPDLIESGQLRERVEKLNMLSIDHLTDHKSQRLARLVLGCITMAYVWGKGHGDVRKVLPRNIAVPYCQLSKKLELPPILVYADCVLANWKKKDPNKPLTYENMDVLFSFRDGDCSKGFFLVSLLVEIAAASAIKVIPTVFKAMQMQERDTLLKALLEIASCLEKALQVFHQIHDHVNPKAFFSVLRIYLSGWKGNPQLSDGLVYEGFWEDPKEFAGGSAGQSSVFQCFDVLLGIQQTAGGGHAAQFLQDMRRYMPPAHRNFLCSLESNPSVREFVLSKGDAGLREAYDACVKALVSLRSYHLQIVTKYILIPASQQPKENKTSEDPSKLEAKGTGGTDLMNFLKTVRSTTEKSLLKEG
Description: Compounds of the present invention were tested via high-throughput cellular assays utilizing detection of kynurenine via mass spectrometry and cytotoxicity as end-points. For the mass spectrometry and cytotoxicity assays, human peripheral blood mononuclear cells (PBMC) (PB003F; AIICells®, Alameda, Calif.) were stimulated with human interferon-γ (IFN-γ) (Sigma-Aldrich Corporation, St. Louis, Mo.) and lipopolysaccharide from Salmonella minnesota (LPS) (Invivogen, San Diego, Calif.) to induce the expression of indoleamine 2, 3-dioxygenase (IDO1). Compounds with IDO1 inhibitory properties decreased the amount of kynurenine produced by the cells via the tryptophan catabolic pathway. Cellular toxicity due to the effect of compound treatment was measured using CellTiter-Glo® reagent (CTG) (Promega Corporation, Madison, Wis.), which is based on luminescent detection of ATP, an indicator of metabolically active cells.
In preparation for the assays, test compounds were serially diluted 3-fold in DMSO from a typical top concentration of 5 mM and plated at 0.5 μL in 384-well, polystyrene, clear bottom, tissue culture treated plates with lids (Greiner Bio-One, Kremsmunster, Austria) to generate 11-point dose response curves. Low control wells (0% kynurenine or 100% cytotoxicity) contained either 0.5 μL of DMSO in the presence of unstimulated (-IFN-γ/-LPS) PBMCs for the mass spectrometry assay or 0.5 μL of DMSO in the absence of cells for the cytotoxicity assay, and high control wells (100% kynurenine or 0% cytotoxicity) contained 0.5 μL of DMSO in the presence of stimulated (+IFN-γ/+LPS) PBMCs for both the mass spectrometry and cytotoxicity assays.
Frozen stocks of PBMCs were washed and recovered in RPMI 1640 medium (Thermo Fisher Scientific, Inc., Waltham, Mass.) supplemented with 10% v/v heat-inactivated fetal bovine serum (FBS) (Thermo Fisher Scientific, Inc., Waltham, Mass.), and 1× penicillin-streptomycin antibiotic solution (Thermo Fisher Scientific, Inc., Waltham, Mass.). The cells were diluted to 1,000,000 cells/mL in the supplemented RPMI 1640 medium. 50 μL of either the cell suspension, for the mass spectrometry assay, or medium alone, for the cytotoxicity assay, were added to the low control wells, on the previously prepared 384-well compound plates, resulting in 50,000 cells/well or 0 cells/well respectively. IFN-γ and LPS were added to the remaining cell suspension at final concentrations of 100 ng/ml and 50 ng/ml respectively, and 50 μL of the stimulated cells were added to all remaining wells on the 384-well compound plates. The plates, with lids, were then placed in a 37° C., 5% CO2 humidified incubator for 2 days.
Following incubation, the 384-well plates were removed from the incubator and allowed to equilibrate to room temperature for 30 minutes. For the cytotoxicity assay, CellTiter-Glo® was prepared according to the manufacturer's instructions, and 40 μL were added to each plate well. After a twenty minute incubation at room temperature, luminescence was read on an EnVision® Multilabel Reader (PerkinElmer Inc., Waltham, Mass.). For the mass spectrometry assay, 10 μL of supernatant from each well of the compound-treated plates were added to 40 μL of acetonitrile, containing 10 μM of an internal standard for normalization, in 384-well, polypropylene, V-bottom plates (Greiner Bio-One, Kremsmunster, Austria) to extract the organic analytes. Following centrifugation at 2000 rpm for 10 minutes, 10 μL from each well of the acetonitrile extraction plates were added to 90 μL of sterile, distilled H2O in 384-well, polypropylene, V-bottom plates for analysis of kynurenine and the internal standard on the RapidFire 300 (Agilent Technologies, Santa Clara, Calif.) and 4000 QTRAP MS (SCIEX, Framingham, Mass.). MS data were integrated using Agilent Technologies' RapidFire Integrator software, and data were normalized for analysis as a ratio of kynurenine to the internal standard. […]

First: CC(C)CC(CC1CCN(C(=O)OC(C)(C)C)CC1)NC(=O)c1ccc(Br)s1 (centres unmarked) [Example 28, tert-butyl 4-(2-(5-bromothiophene-2-carboxamido)-4-methylpentyl)piperidine-1-carboxylate]
Second: Cc1ccc(C(=O)NC(CC2CCN(C(=O)OC(C)(C)C)CC2)C(C)C)s1 (centres unmarked) [Example 46, tert-butyl 4-(3-methyl-2-(5-methylthiophene-2-carboxamido)butyl)piperidine-1-carboxylate]
The IC50 of the first is 2-fold higher: 7.94 nM for the first, 3.98 nM for the second.

Compared with COc1ccc([C@H](CC2CCN(C(=O)OC(C)(C)C)CC2)NC(=O)c2ccc(Br)s2)cn1 [Example 29, tert-butyl (S)-4-(2-(5-bromothiophene-2-carboxamido)-2-(6-methoxypyridin-3-yl)ethyl)piperidine-1-carboxylate], COc1ccc([C@H](CC2CCN(C(=O)CC(C)(C)C)CC2)NC(=O)c2ccc(Cl)s2)cn1 [Example 39, (S)-5-chloro-N-(2-(1-(3,3-dimethylbutanoyl)piperidin-4-yl)-1-(6-methoxypyridin-3-yl)ethyl)thiophene-2-carboxamide] is 3.2-fold higher in IC50: 1.58 nM for the first, 5.01 nM for the second.

CCc1ccc(C(=O)N[C@@H](CC2CCN(C(=O)OC(C)(C)C)CC2)c2ccccc2)s1 [Example 30, tert-butyl (S)-4-(2-(5-ethylthiophene-2-carboxamido)-2-phenylethyl)piperidine-1-carboxylate] and CCc1ccc(C(=O)N[C@@H](CC2CCN(C(=O)OC(C)C)CC2)c2ccccc2)s1 [Example 33, isopropyl (S)-4-(2-(5-ethylthiophene-2-carboxamido)-2-phenylethyl)piperidine-1-carboxylate] are within 1.5-fold of each other in IC50: 10 nM for the first, 7.94 nM for the second.

Going from CC(C)(C)OC(=O)N1CCC(CC(NC(=O)c2ccc(Br)s2)C2CCCCC2)CC1 (centres unmarked) [Example 31, tert-butyl 4-(2-(5-bromothiophene-2-carboxamido)-2-cyclohexylethyl)piperidine-1-carboxylate] to C[C@H](CC1CCN(C(=O)OC(C)(C)C)CC1)NC(=O)c1ccc(Cl)s1 [Example 38, tert-butyl (R)-4-(2-(5-chlorothiophene-2-carboxamido)propyl)piperidine-1-carboxylate], the IC50 falls from 7.94 nM to 5.01 nM (1.6-fold).

First: CC(C)OC(=O)N1CCC(C[C@H](NC(=O)c2ccc(Cl)cc2)c2ccccc2)CC1 [Example 32, isopropyl (S)-4-(2-(4-chlorobenzamido)-2-phenylethyl)piperidine-1-carboxylate]
Second: COc1ccc([C@H](CC2CCN(C(=O)Oc3ccccc3)CC2)NC(=O)c2ccc(Cl)cc2)cn1 [Example 37, phenyl (S)-4-(2-(4-chlorobenzamido)-2-(6-methoxypyridin-3-yl)ethyl)piperidine-1-carboxylate]
The IC50 of the first is 4-fold higher: 10 nM for the first, 2.51 nM for the second.

Going from C=CC[C@H](CC1CCN(C(=O)OC(C)(C)C)CC1)NC(=O)c1ccc(Cl)s1 [Example 34, tert-butyl (R)-4-(2-(5-chlorothiophene-2-carboxamido)pent-4-en-1-yl)piperidine-1-carboxylate] to CCc1ccc(C(=O)NC(CC2CCN(C(=O)OC(C)(C)C)CC2)C(C)C)s1 (centres unmarked) [Example 49, tert-butyl 4-(2-(5-ethylthiophene-2-carboxamido)-3-methylbutyl)piperidine-1-carboxylate], the IC50 rises from 3.98 nM to 6.31 nM (1.6-fold).

CC(C)CC(CC1CCN(C(=O)Oc2ccccc2)CC1)NC(=O)c1ccc(Cl)s1 (centres unmarked) [Example 35, phenyl 4-(2-(5-chlorothiophene-2-carboxamido)-4-methylpentyl)piperidine-1-carboxylate] and C[C@H](CC1CCN(C(=O)Oc2ccccc2)CC1)NC(=O)c1ccc(Cl)s1 [Example 42, phenyl (R)-4-(2-(5-chlorothiophene-2-carboxamido)propyl)piperidine-1-carboxylate] are within 1.5-fold of each other in IC50: 6.31 nM for the first, 5.01 nM for the second.

Compared with COc1ccc([C@H](CC2CCN(C(=O)Oc3ccccc3)CC2)NC(=O)c2ccc(Cl)s2)cn1 [Example 36, phenyl (S)-4-(2-(5-chlorothiophene-2-carboxamido)-2-(6-methoxypyridin-3-yl)ethyl)piperidine-1-carboxylate], COc1ccc([C@H](CC2CCN(C(=O)C(F)(F)c3ccccc3)CC2)NC(=O)c2ccc(Cl)s2)cn1 [Example 43, (S)-5-chloro-N-(2-(1-(2,2-difluoro-2-phenylacetyl)piperidin-4-yl)-1-(6-methoxypyridin-3-yl)ethyl)thiophene-2-carboxamide] is 1.6-fold lower in IC50: 1.58 nM for the first, 1 nM for the second.

COc1ccc([C@H](CC2CCN(C(=O)NC(C)(C)C)CC2)NC(=O)c2ccc(Cl)s2)cn1 [Example 40, (S)-N-(tert-butyl)-4-(2-(5-chlorothiophene-2-carboxamido)-2-(6-methoxypyridin-3-yl)ethyl)piperidine-1-carboxamide] and COc1ccc([C@H](CC2CCN(S(=O)(=O)CC(C)C)CC2)NC(=O)c2ccc(Cl)s2)cn1 [Example 41, (S)-5-chloro-N-(2-(1-(isobutylsulfonyl)piperidin-4-yl)-1-(6-methoxypyridin-3-yl)ethyl)thiophene-2-carboxamide] are the same in IC50: 3.98 nM for the first, 3.98 nM for the second.

CCN(CC)c1nnc(C(CC2CCN(C(=O)OC(C)(C)C)CC2)NC(=O)c2ccc(Cl)s2)o1 (centres unmarked) [Example 44, tert-butyl 4-(2-(5-chlorothiophene-2-carboxamido)-2-(5-(diethylamino)-1,3,4-oxadiazol-2-yl)ethyl)piperidine-1-carboxylate] and CCN(CC)c1nnc(C(CC2CCN(C(=O)OC(C)(C)C)CC2)NC(=O)c2ccc(C)s2)o1 (centres unmarked) [Example 48, tert-butyl 4-(2-(5-(diethylamino)-1,3,4-oxadiazol-2-yl)-2-(5-methylthiophene-2-carboxamido)ethyl)piperidine-1-carboxylate] are within 1.5-fold of each other in IC50: 3.16 nM for the first, 3.98 nM for the second.

CCOC(=O)N1CCC(CC(NC(=O)c2ccc(Cl)s2)c2nnc(N(CC)CC)o2)CC1 (centres unmarked) [Example 45, ethyl 4-(2-(5-chlorothiophene-2-carboxamido)-2-(5-(diethylamino)-1,3,4-oxadiazol-2-yl)ethyl)piperidine-1-carboxylate] and CCN(CC)c1nnc(C(CC2CCN(C(=O)Oc3ccccc3)CC2)NC(=O)c2ccc(Cl)s2)o1 (centres unmarked) [Example 53, phenyl 4-(2-(5-chlorothiophene-2-carboxamido)-2-(5-(diethylamino)-1,3,4-oxadiazol-2-yl)ethyl)piperidine-1-carboxylate] are the same in IC50: 3.16 nM for the first, 3.16 nM for the second.

Going from CCC(CC)c1nc(C(CC2CCN(C(=O)OC(C)(C)C)CC2)NC(=O)c2ccc(Cl)s2)no1 (centres unmarked) [Example 47, tert-butyl 4-(2-(5-chlorothiophene-2-carboxamido)-2-(5-(pentan-3-yl)-1,2,4-oxadiazol-3-yl)ethyl)piperidine-1-carboxylate] to CCN(C)c1nnc(C(CC2CCN(C(=O)OC(C)(C)C)CC2)NC(=O)c2ccc(C)s2)o1 (centres unmarked) [Example 52, tert-butyl 4-(2-(5-(ethyl(methyl)amino)-1,3,4-oxadiazol-2-yl)-2-(5-methylthiophene-2-carboxamido)ethyl)piperidine-1-carboxylate], the IC50 rises from 3.98 nM to 10 nM (2.5-fold).

CCN(c1nnc(C(CC2CCN(C(=O)OC(C)(C)C)CC2)NC(=O)c2ccc(C)s2)o1)C1CC1 (centres unmarked) [Example 50, tert-butyl 4-(2-(5-(cyclopropyl(ethyl)amino)-1,3,4-oxadiazol-2-yl)-2-(5-methylthiophene-2-carboxamido)ethyl)piperidine-1-carboxylate] and Cc1ccc(C(=O)NC(CC2CCN(C(=O)Oc3ccccc3)CC2)c2ccccc2)s1 (centres unmarked) [Example 51, phenyl 4-(2-(5-methylthiophene-2-carboxamido)-2-phenylethyl)piperidine-1-carboxylate] are within 1.5-fold of each other in IC50: 6.31 nM for the first, 7.94 nM for the second.
